Laboratory results reported in US8697736B2, “1H-benzimidazole-4-carboxamides substituted with phenyl at the 2-position are potent PARP inhibitors” (AbbVie Inc., priority 2005, dated 2014).

Test system: MX-1 Breast Carcinoma Xenograft
Test: PARP inhibitors in combination with cisplatin in an early staged MX-1 breast carcinoma xenograft model
Type: in vivo, female SCID mice
Conditions: average tumor volume at Day 48; PARPi 25 or 0 mg/kg/day s.c. OMP x7 from day 16 + cisplatin 6 mg/kg/day i.p. qd x1 on day 18; footnote a not given; in mm³ (unit assumed)
Method: PARP Inhibitors in Combination with Cisplatin in an Early Staged MX-1 Breast Carcinoma Xenograft Model
0.2 cc of 1:10 MX-1 tumor brei, was injected subcutaneously into the flank of female SCID mice (Charles River Labs) on study day 0. On day 15, tumors were size matched (188±25 mm^3) and the animals were placed into one of two therapy groups:
Group 1 vehicle (s.c. OMP×7)+Cisplatin 6 mg/kg/day (i.p., qd×1)
Group 2 PARPi 25 mg/kg/day (s.c. OMP×7)+Cisplatin 6 mg/kg/day (i.p., qd×1) The vehicle for both the PARP inhibitor and cisplatin was 0.9% NaCl. There were 8-10 […] in each group. Treatment with the PARPi began on day 16 while cisplatin treatment was started on day 18. At various intervals following tumor cell inoculation, the individual tumor dimensions were serially measured using calibrated microcalipers and the tumor volumes calculated according to the formula V=L×W^2/2 (V:volume, L:length, W:width). Mice were humanely euthanized when the tumor volumes reached a predetermined size.

N.N.[Cl][Pt][Cl] [Vhl (PARPi)/Cis, Cisplatin]
Tumor Volume (Day 48): 1389 ± 300
